Where a name gives a salt, the structure may show the parent alone. Read-outs that look alike come from different tables or passages of the source. Marks after values point to notes of the source that are not given here.
Assays:
[1] = Systemic availability of mexiletine in the dog from mexiletine prodrugs (oral gavage); format: in vivo; settings: for AUC of mexiletine / Cmax of mexiletine / T50% Cmax / F(rel): 1 mg/kg mexiletine free base; for AUC of mexiletine / Cmax of mexiletine / T50% Cmax: plasma mexiletine; for F(rel): relative to mexiletine
Experimental: Test substances (i.e., mexiletine, and various mexiletine amino acid prodrugs) were administered by oral gavage to groups of two or some cases five dogs. The characteristics of the test animals are set out in Table 6.
Blood samples were taken at various times after administration and submitted to analysis for parent drug using a validated LC-MS-MS assay. Pharmacokinetic parameters derived from the plasma bioanalytical data were determined using Win Nonlin.

[2] = In vitro stability of mexiletine prodrugs under conditions prevailing in the gut; format: physicochemical; settings: 0.1M phosphate buffer pH 7.4, 2 h
[3] = as above; format: physicochemical; settings: HPLC; for Simulated gastric fluid (pH 1.1): % remaining after 2 h/37° C.: simulated gastric fluid pH 1.1, 2 h; for Simulated intestinal fluid (pH 6.8): % remaining after 2 h/37° C.: simulated intestinal fluid pH 6.8, 2 h
Experimental: To investigate if the prodrugs of the present invention are stable in conditions mimicking the gut, various mexiletine amino acid prodrugs were incubated at 37° C. in simulated gastric and simulated intestinal juice (USP defined composition) for 2 hours. The remaining concentrations of the prodrug were then assayed by HPLC.

[4] = Systemic availability of mexiletine in the cynomolgus monkey from mexiletine prodrugs (oral gavage); format: in vivo; settings: 1 mg/kg mexiletine free base; for AUC of mexiletine / Cmax of mexiletine / T50% Cmax: plasma mexiletine; for F(rel): relative to mexiletine
Experimental: Test substances (i.e., mexiletine, and various mexiletine amino acid prodrugs) were administered by oral gavage to groups of two and, in one case, five male cynomolgus monkeys. Blood samples were taken at various times after administration and submitted to analysis for the parent drug using a validated LC-MS-MS assay. Pharmacokinetic parameters derived from the plasma bioanalytical data were determined using Win Nonlin.

[5] = tested on: patients with myotonic disorders; settings: 1200 mg daily tocamide or 600 mg daily mexiletine, three divided doses; cited from earlier work
[6] = oral, cited from earlier work

Compound: Cc1cccc(C)c1OCC(C)NC(=O)c1ccncc1 (stereo not drawn) [Mexiletine isonicotinic acid amide]
- Bioavailability with respect to mexiletine [1]: negligible

Compound: CNC(=N)NCCC[C@H](N)C(=O)NC(C)COc1c(C)cccc1C (stereo partly drawn) [Mexiletine (S)-N-methylarginine amide, Mexiletine-(S)—N-Methylarginine Amide Dihydrochloride]
- pH 7.4, 37° C. 0.1M phosphate buffer: % remaining after 2 h/37° C. [2]: 99.9%
- Simulated gastric fluid (pH 1.1): % remaining after 2 h/37° C. [3]: 99.8%
- Simulated intestinal fluid (pH 6.8): % remaining after 2 h/37° C. [3]: 93.6%

Compound: Cc1cccc(C)c1OCC(C)NC(=O)C(N)CN (stereo not drawn)
- AUC of mexiletine [1]: 8371 ng·h/mL
- Cmax of mexiletine [1]: 103 ng/mL
- T50% Cmax [1]: 10.0 h
- F(rel) [1]: 77.9%
- AUC of mexiletine [4]: 801 ng·h/mL
- Cmax of mexiletine [4]: 82.7 ng/mL
- T50% Cmax [4]: 7.88 h
- F(rel) [4]: 116%

Compound: Cc1cccc(C)c1OCC(C)NC(=O)C(N)CCCNC(N)=O (stereo not drawn) [Mexiletine citrulline amide]
- T50% Cmax [1]: 3.0** h

Compound: Cc1cccc(C)c1OCC(C)NC(=O)CCN (stereo not drawn) [Mexiletine β alanine amide]
- Cmax of mexiletine [1]: BLQ
- Cmax of mexiletine [4]: BLQ

Compound: Cc1cccc(C)c1OCC(C)NC(=O)[C@@H](NC(=O)[C@@H](N)C(C)C)C(C)C.Cl (stereo partly drawn) [Mexiletine valine-valine amide, Mexiletine-valine-valine Amide Hydrochloride]
- T50% Cmax [1]: 4.25** h

Compound: Cc1cccc(C)c1OCC(C)NC(=O)C(N)CCCNC(=N)N (stereo not drawn) [Mexiletine arginine amide]
- T50% Cmax [1]: 6.5** h
- T50% Cmax [4]: 4.48 h

Compound: Cc1cccc(C)c1OCC(C)NC(=O)[C@@H](N)CCCN (stereo partly drawn) [Mexiletine ornithine amide, Mexiletine-(S)-Ornithine Amide Di-hydrochloride]
- pH 7.4, 37° C. 0.1M phosphate buffer: % remaining after 2 h/37° C. [2]: 99.5%
- Simulated gastric fluid (pH 1.1): % remaining after 2 h/37° C. [3]: 99.7%
- Simulated intestinal fluid (pH 6.8): % remaining after 2 h/37° C. [3]: 99.8%

Compound: Cc1cccc(C)c1OCC(C)NC(=O)[C@@H](N)CCC(N)=O.Cl (stereo partly drawn) [Mexiletine glutamine amide]
- Bioavailability with respect to mexiletine [1]: near complete
- AUC of mexiletine [1]: 790 ng·h/mL
- Cmax of mexiletine [1]: 117 ng/mL
- T50% Cmax [1]: 5.60 h
- F(rel) [1]: 73.5%
- AUC of mexiletine [4]: 649 ng·h/mL
- Cmax of mexiletine [4]: 105 ng/mL
- T50% Cmax [4]: 4.0 h
- F(rel) [4]: 94.1%

Compound: Cc1cccc(C)c1OCC(C)NC(=O)c1cccnc1 (stereo not drawn) [Mexiletine nicotinic acid amide]
- Bioavailability with respect to mexiletine [1]: negligible
- Cmax of mexiletine [1]: BLQ

Compound: Cc1cccc(C)c1OCC(C)NC(=O)[C@@H](N)CCCCN=C(N)N.Cl.Cl (stereo partly drawn) [Mexiletine homo arginine amide, Mexiletine-(S)-Homoarginine Amide Dihydrochloride]
- AUC of mexiletine [1]: 563 ng·h/mL
- Cmax of mexiletine [1]: 86.9 ng/mL
- T50% Cmax [1]: 5.39 h
- F(rel) [1]: 52.4%
- AUC of mexiletine [4]: 424 ng·h/mL
- Cmax of mexiletine [4]: 56.8 ng/mL
- T50% Cmax [4]: 5.13 h
- F(rel) [4]: 61.5%

Compound: Cc1cccc(C)c1NC(=O)C(C)N (stereo not drawn) [tocamide]
- Increase in the speed of stair step movement [5]: 2.7 fold
- Reduction in the time taken for eye opening [5]: 7 fold
- Reduction of hand opening time [5]: 4.2 fold

Compound: Cc1cccc(C)c1OCC(C)NC(=O)[C@@H](N)C(C)C.Cl (stereo partly drawn) [Mexiletine valine amide, Mexiletine-(S)-Valine Amide Hydrochloride]
- pH 7.4, 37° C. 0.1M phosphate buffer: % remaining after 2 h/37° C. [2]: 98.8%
- Simulated gastric fluid (pH 1.1): % remaining after 2 h/37° C. [3]: 98.7%
- Simulated intestinal fluid (pH 6.8): % remaining after 2 h/37° C. [3]: 98.3%
- T50% Cmax [1]: 5.0** h

Compound: CC(=O)N[C@@H](CCCCN)C(=O)NC(C)COc1c(C)cccc1C.Cl (stereo partly drawn) [Mexiletine [(S)-N^α-acetyl-lysine] amide, Mexiletine [(S)—N^α-Acetyl-Lysine] Amide Hydrochloride]
- AUC of mexiletine [1]: 893 ng·h/mL
- Cmax of mexiletine [1]: 90.8 ng/mL
- T50% Cmax [1]: 8.08 h
- F(rel) ([1]; listed as Mexiletine α acetyl lysine amide, Hydrochloride, 1 mg/kg): 83.1%
- AUC of mexiletine [4]: 363 ng·h/mL
- Cmax of mexiletine [4]: 30.3 ng/mL
- T50% Cmax [4]: 8.98 h
- F(rel) ([4]; Hydrochloride, 1 mg/kg): 60%
- F(rel) ([4]; listed as Mexiletine acetyl Lysine amide, Hydrochloride, 1 mg/kg): 52.6%

Compound: Cc1cccc(C)c1OCC(C)NC(=O)[C@@H](N)C(C)(C)O (stereo partly drawn) [Mexiletine [^α-hydroxy-(5)-valine] amide, Mexiletine [β-hydroxy-(S)-valine] amide]
- Cmax of mexiletine [1]: 1.68 ng/mL
- Cmax of mexiletine [4]: BLQ

Compound: Cc1cccc(C)c1OCC(C)NC(=O)[C@@H](N)Cc1ccccc1.Cl (stereo partly drawn) [Mexiletine phenylalanine amide, Mexiletine-(S)-Phenylalanine Amide Hydrochloride]
- T50% Cmax [1]: 3.5** h

Compound: Cc1cccc(C)c1OCC(C)NC(=O)[C@@H](N)CC(=O)O (stereo partly drawn) [Mexiletine-(S)-aspartic acid amide, Mexiletine-(S)-Aspartic Acid Amide Hydrochloride]
- pH 7.4, 37° C. 0.1M phosphate buffer: % remaining after 2 h/37° C. [2]: 99.9%
- Simulated gastric fluid (pH 1.1): % remaining after 2 h/37° C. [3]: 99.2%
- Simulated intestinal fluid (pH 6.8): % remaining after 2 h/37° C. [3]: 99.9%

Compound: Cc1cccc(C)c1OCC(C)NC(=O)[C@@H](N)C[S+](C)[O-].O=C(O)C(F)(F)F (stereo partly drawn) [Mexiletine [(R)-S-methyl-cysteine, Mexiletine [(R)—S-Methyl-Cysteine Sulfoxide] Amide Trifluoroacetate]
- AUC of mexiletine [1]: 144 ng·h/mL
- Cmax of mexiletine [1]: 59.9 ng/mL
- T50% Cmax [1]: 1.63 h
- F(rel) [1]: 13.4%
- AUC of mexiletine [4]: 432 ng·h/mL
- Cmax of mexiletine [4]: 62.2 ng/mL
- T50% Cmax [4]: 4.80 h
- F(rel) ([4]; listed as Mexiletine methyl-cysteine sulfoxide amide, 1 mg/kg): 62.6%

Compound: Cc1cccc(C)c1OCC(C)NC(=O)C(N)CCCNC(=N)N(C)C.Cl.Cl (mixture of isomers) [Mexiletine-(S)—N,N-Dimethylarginine Amide Dihydrochloride]
- pH 7.4, 37° C. 0.1M phosphate buffer: % remaining after 2 h/37° C. [2]: 99.6%
- Simulated gastric fluid (pH 1.1): % remaining after 2 h/37° C. [3]: 99.7%
- Simulated intestinal fluid (pH 6.8): % remaining after 2 h/37° C. [3]: 96.8%

Compound: Cc1cccc(C)c1OCC(C)NC(=O)[C@@H](N)CC[S+](C)C (stereo partly drawn) [Mexiletine S-methyl-methionine chloride, Mexiletine-[(S)—S-Methyl-Methionine Chloride] Amide Hydrochloride]
- pH 7.4, 37° C. 0.1M phosphate buffer: % remaining after 2 h/37° C. [2]: 99.8%
- Simulated gastric fluid (pH 1.1): % remaining after 2 h/37° C. [3]: 99.2%
- Simulated intestinal fluid (pH 6.8): % remaining after 2 h/37° C. [3]: 99.4%
- T50% Cmax [1]: 5.92 h
- T50% Cmax [4]: 5.99 h

Compound: Cc1cccc(C)c1OCC(C)NC(=O)C(N)CO (stereo not drawn) [Mexiletine serine amide]
- T50% Cmax [1]: 6.00 h
- T50% Cmax [4]: 5.05 h

Compound: NCC1(CC(=O)O)CCCCC1 [gabapentin]
- Bioavailability ([6]; 900 mg/day gabapentin): approximately 60%
- Bioavailability ([6]; 1200 mg/day gabapentin): ~47%
- Bioavailability ([6]; 2400 mg/day gabapentin): ~34%
- Bioavailability ([6]; 3600 mg/day gabapentin): ~33%
- Bioavailability ([6]; 4800 mg/day gabapentin): ~27%

Compound: Cc1cccc(C)c1OCC(C)NC(=O)C(N)C1CC1 (stereo not drawn) [Mexiletine cyclopropyl glycine amide]
- Cmax of mexiletine [1]: 0.703 ng/mL
- Cmax of mexiletine [4]: 0.895 ng/mL

— patent US20120196933A1, “MEXILETINE PRODRUGS” (priority 2010, published 2012)
